Laboratory results reported in BindingDB's records for doi:10.1021/acs.jmedchem.6b01566 (Glaxosmithkline, 2017).

Biological target: Histone acetyltransferase KAT2B (Homo sapiens, UniProt Q92831)
Assay: Binding affinity to human partial length PCAF bromodomain expressed in mammalian expression system by BROMOscan method

Sequence of Histone acetyltransferase KAT2B (Q92831 whole entry): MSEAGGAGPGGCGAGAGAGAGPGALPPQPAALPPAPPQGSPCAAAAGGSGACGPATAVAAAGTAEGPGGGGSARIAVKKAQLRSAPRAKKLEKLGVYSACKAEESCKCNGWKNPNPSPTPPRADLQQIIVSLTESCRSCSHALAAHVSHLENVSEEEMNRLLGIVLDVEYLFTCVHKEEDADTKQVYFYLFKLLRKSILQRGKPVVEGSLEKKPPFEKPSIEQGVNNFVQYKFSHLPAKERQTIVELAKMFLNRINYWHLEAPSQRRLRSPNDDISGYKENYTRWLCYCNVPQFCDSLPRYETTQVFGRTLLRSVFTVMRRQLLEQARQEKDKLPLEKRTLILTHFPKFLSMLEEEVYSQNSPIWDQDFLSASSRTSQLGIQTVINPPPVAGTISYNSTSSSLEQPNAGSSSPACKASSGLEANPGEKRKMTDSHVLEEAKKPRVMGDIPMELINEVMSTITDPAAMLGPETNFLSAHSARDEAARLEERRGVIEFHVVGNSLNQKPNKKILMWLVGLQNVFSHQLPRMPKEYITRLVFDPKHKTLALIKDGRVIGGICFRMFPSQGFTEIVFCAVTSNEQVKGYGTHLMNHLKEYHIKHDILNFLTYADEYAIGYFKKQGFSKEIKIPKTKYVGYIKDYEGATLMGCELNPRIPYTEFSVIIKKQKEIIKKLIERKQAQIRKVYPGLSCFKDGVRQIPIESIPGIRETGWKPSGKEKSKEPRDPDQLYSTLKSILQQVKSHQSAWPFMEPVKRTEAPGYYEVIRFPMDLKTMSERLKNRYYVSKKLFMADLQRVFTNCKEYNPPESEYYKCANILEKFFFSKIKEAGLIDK

Ki: 1.26 nM
SMILES: CN1C[C@H](Nc2cnn(C)c(=O)c2Br)C[C@H](c2ccccc2)C1
